{"source": "patent US20240252472A1", "about": "“COMBINATIONS FOR TREATING CANCER” (Purdue Pharma L.P., priority 2023, published 2024)", "key": {"MOLP-8": {"test_system": "MOLP-8", "assay": "Percentage of viable MM cells after treatment", "assay_type": "cell-based", "conditions": "Homo sapiens, MOLP-8, read-out: percentage of viable cells", "protocol": "(§1) Cell Treatment with EDO-S101 MM cells (MM1S, JJN3, KMS12-BM, RPMI-8226, U266, MOLP-8) were either treated with a control (0 μM EDO-S101, DMSO vehicle) or treated with EDO-S101 (0.1, 0.5, 1 or 2.5 μM in DMSO) for 48 hours, unless indicated otherwise."}, "JJN3": {"test_system": "JJN3", "assay": "Percentage of viable MM cells after treatment", "assay_type": "cell-based", "conditions": "Homo sapiens, JJN-3, read-out: percentage of viable cells", "protocol": "as §1"}, "MOLP-8 cells [1]": {"test_system": "MOLP-8 cells", "assay": "Daratumumab-mediated complement-dependent cytotoxicity (CDC) on pre-treated MM cells", "assay_type": "cell-based", "conditions": "MOLP-8 pre-treated 2.5 μM 48 hours; daratumumab 0.1 or 1 μg/mL, 10% human serum, 4 hours", "protocol": "(§2) ADCC, CDC and apoptosis via cross-linking To assess the effect of tinostamustine pre-treatment on cytotoxic mechanisms mediated by daratumumab, MM cell lines were first incubated in presence of tinostamustine (2.5 μM) or DMSO for 48 hours. Cells were then washed to remove tinostamustine or DMSO from the culture medium, and the corresponding cytotoxic assay (ADCC, CDC or apoptosis via cross-linking) was performed.\n(§3) For the evaluation of ADCC, tinostamustine or DMSO pre-treated cells were cocultured with NK cells obtained from healthy donors in the presence of daratumumab (1 μg/ml) or the corresponding isotype control for 4 hours (ratio 1:1). Briefly, peripheral blood mononuclear cells (PBMCs) were isolated from healthy donor buffy coats by Lymphoprep density gradient centrifugation. […] In all three assays, the cytotoxic effect on MM cells was evaluated by flow cytometry with Annexin V/7AAD staining after treatment with daratumumab. […]\nMM cells (MOLP-8 pre-treated with 0 or 2.5 μM EDO-S101 for 48 hours in accordance with the methods outlined above) were incubated with 0.1 μg/mL daratumumab, 1 μg/ml daratumumab, or the corresponding isotype control, for 30 minutes at 37° C. […] The percentage of dead cells was then evaluated by flow cytometry in accordance with the methods outlined above, using AnnexinV/7AAD staining."}, "[2]": {"test_system": "MM cell lines (MM.1S, RPMI-8226, MOLP-8)", "assay": "NK-cell direct cytotoxicity on pre-treated MM cells", "assay_type": "cell-based, human", "conditions": "pre-treatment 2.5 μM 48 hours, NK cells ratio 1:1, 4 hours, vs DMSO-pretreated", "protocol": "as §2, §3\nMM cells (MM1.S, RPMI-8226, MOLP-8 cells pre-treated with 0 or 2.5 μM EDO-S101 in accordance with the methods outlined above) were co-cultured with NK-cells (ratio 1:1), in the presence of daratumumab (1 μg/mL) or the corresponding isotype control, for 4 hours at 37° C. […] ADCC was then evaluated using flow cytometry in accordance with the methods outlined above, using the following panel: CD38me-FITC/AnnexinV-PE/7AAD/CD45-APC."}, "MOLP-8 cells [3]": {"test_system": "MOLP-8 cells", "assay": "Daratumumab cross-linking mediated apoptosis after EDO-S101 pre-treatment", "assay_type": "cell-based, human", "conditions": "MOLP-8 pre-treated with EDO-S101 2.5 μM 48 h, daratumumab 1 μg/mL 24 h + F(ab)2; vs not pre-treated, p=0.0454", "protocol": "as §2\nas §3, with “1:1).” for “1:1). Briefly, peripheral blood mononuclear cells (PBMCs) were isolated from healthy donor buffy coats by Lymphoprep density gradient centrifugation.”\nMM cells (MOLP-8 cells pre-treated with 0, 0.1, 0.5, 1 or 2.5 μM EDO-S101 for 48 hours in accordance with the methods outlined above) were incubated for 24 hours in the presence of 1 μg/mL daratumumab or the corresponding isotype control, along with 10 μg/mL F(ab)2 fragments for cross-linking. Apoptosis was evaluated by flow cytometry in accordance with the methods outlined above, using AnnexinV/7AAD staining. The effect of EDO-S101 on the crosslinking-mediated apoptosis induced by daratumumab was assessed using the following formula: […]"}, "CD38": {"test_system": "CD38", "assay": "CD38 expression by western blot in MM cell lines", "assay_type": "cell-based, human", "protocol": "Western Blot Analysis Cells were collected and centrifuged at 1200 rpm for 5 minutes at 4° C. Cells were washed with PBS and lysed in ice-cold lysis buffer [140 mmol/L NaCl, 10 mmol/L EDTA, 10% glycerol, 1% NP40, 20 mmol/L Tris (pH 7), 1 μMol/L pepstatin, 1 μg/mL aprotinin, 1 μg/mL leupeptin, 1 mmol/L sodium orthovanadate]. Samples were centrifuged at 10,000×g at 4° C. for 10 minutes, and supernatants were transferred to new tubes and western blots were performed following standard procedures. CD38 and anti-α-tubulin primary antibodies used in Western blot analyses were obtained from Cell Signaling (Boston, MA, USA). The horseradish peroxidase-conjugated secondary antibodies were from GE Healthcare (Chicago, IL, USA)."}}, "data": [{"smiles": "Cn1c(CCCCCCC(=O)NO)nc2cc(N(CCCl)CCCl)ccc21", "note": "[EDO-S101, 7-(5-(bis(2-chloroethyl)amino)-1-methyl-1H-benzo[d]imidazol-2-yl)-N-hydroxyheptanamide]", "values": [{"measurement": "viability at 2.5 µM", "setting": "MOLP-8", "result": 25.6, "unit": "%"}, {"measurement": "viability at 2.5 µM", "setting": "JJN3", "result": 55.5, "unit": "%"}, {"measurement": "daratumumab mediated CDC", "setting": "MOLP-8 cells [1]", "result": "enhanced"}, {"measurement": "percentage of dead myeloma cells, NK-cell direct cytotoxicity (no daratumumab)", "setting": "[2]", "result": "significantly enhances"}, {"measurement": "percentage of dead myeloma cells, NK-cell direct cytotoxicity (no daratumumab)", "setting": "[2]; listed as tinostamustine", "result": "significantly increased"}, {"measurement": "daratumumab-mediated apoptosis via cross-linking", "setting": "MOLP-8 cells [3]", "result": "higher"}, {"measurement": "CD38 expression, western blot", "setting": "CD38; MM1.S, JJN3, RPMI-8226, 1 and 2.5 μM", "result": "increased"}, {"measurement": "increase in CD38 by Western blot and RT-qPCR", "setting": "CD38; MOLP-8 cells", "result": "not observed"}]}]}
